ChEMBL document CHEMBL2203035, “Synthesis and docking studies of novel antitumor benzimidazoles” (Bioorg Med Chem, 2012)

Legend:
[1] = tested on: Raji; assay: Inhibition of tumor promotion in human Raji cells assessed as TPA-induced Epstein-Barr virus early antigen activation at 100 mol ratio/TPA after 48 hrs by indirect immunofluorescence analysis relative to TPA alone; assay type: functional; parameters: scale not given: the % may be the effect or the level left
[2] = tested on: MCF7; assay: cells; conditions: Homo sapiens, MCF7, 48 h
Description: Cytotoxicity against human MCF7 cells after 48 hrs by sulforhodamine B assay

[3] = molecular target: Urokinase plasminogen activator surface receptor (Homo sapiens, UniProt Q03405); assay: Binding affinity to uPAR
[4] = tested on: Raji; assay: Inhibition of tumor promotion in human Raji cells assessed as TPA-induced Epstein-Barr virus early antigen activation at 1000 mol ratio/TPA after 48 hrs by indirect immunofluorescence analysis relative to TPA alone; assay type: functional; parameters: scale not given: the % may be the effect or the level left
[5] = tested on: Raji; assay: Inhibition of tumor promotion in human Raji cells assessed as TPA-induced Epstein-Barr virus early antigen activation at 500 mol ratio/TPA after 48 hrs by indirect immunofluorescence analysis relative to TPA alone; assay type: functional; parameters: scale not given: the % may be the effect or the level left
[6] = tested on: A549; assay: Cytotoxicity against human A549 cells after 72 hrs by alamar blue assay; assay type: functional, cell-based; conditions: A549, 72 h
[7] = tested on: Raji; assay: Inhibition of tumor promotion in human Raji cells assessed as TPA-induced Epstein-Barr virus early antigen activation at 10 mol ratio/TPA after 48 hrs by indirect immunofluorescence analysis relative to TPA alone; assay type: functional; parameters: scale not given: the % may be the effect or the level left
[8] = tested on: A549; assay: Downregulation of uPA protein expression in human A549 cell extract at 0.85 uM after 48 hrs by ELISA (reference value: 11.0000 +/-1.60 ng/ml); assay type: functional
[9] = tested on: MCF7; assay: Downregulation of uPA protein expression in human MCF7 cell extract at 0.167 uM after 48 hrs by ELISA; assay type: functional
[10] = tested on: A549; assay: Downregulation of uPA protein expression in human A549 cell extract at 3.40 uM after 48 hrs by ELISA; assay type: functional
[11] = tested on: MCF7; assay: Downregulation of uPA protein expression in human MCF7 cell extract at 0.67 uM after 48 hrs by ELISA; assay type: functional
[12] = tested on: A549; assay: Downregulation of uPA protein expression in human A549 cell extract at 3.40 uM after 48 hrs by ELISA (reference value: 11.0000 +/-1.60 ng/ml); assay type: functional
[13] = tested on: MCF7; assay: Downregulation of uPA protein expression in human MCF7 cell extract at 0.335 uM after 48 hrs by ELISA; assay type: functional
[14] = tested on: MCF7; assay: Downregulation of uPA protein expression in human MCF7 cell extract at 0.084 uM after 48 hrs by ELISA; assay type: functional
[15] = tested on: MCF7; assay: Downregulation of uPA protein expression in human MCF7 cell extract at 0.167 ug/well after 48 hrs by ELISA (reference value: 1 1.4000 +/- 1.40 ng/ml)
[16] = tested on: MCF7; assay: Downregulation of uPA protein expression in human MCF7 cell extract at 0.67 uM after 48 hrs by ELISA (reference value: 1 1.4000 +/- 1.40 ng/ml); assay type: functional
[17] = tested on: A549; assay: Downregulation of uPA protein expression in human A549 cell extract at 0.425 uM after 48 hrs by ELISA; assay type: functional
[18] = tested on: MCF7; assay: Downregulation of uPA protein expression in human MCF7 cell extract at 0.084 ug/well after 48 hrs by ELISA (reference value: 1 1.4000 +/- 1.40 ng/ml)
[19] = tested on: A549; assay: Downregulation of uPA protein expression in human A549 cell extract at 0.425 uM after 48 hrs by ELISA (reference value: 11.0000 +/-1.60 ng/ml); assay type: functional
[20] = tested on: MCF7; assay: Downregulation of uPA protein expression in human MCF7 cell extract at 0.335 ug/well after 48 hrs by ELISA (reference value: 1 1.4000 +/- 1.40 ng/ml)
[21] = tested on: A549; assay: Downregulation of uPA protein expression in human A549 cell extract at 1.70 uM after 48 hrs by ELISA; assay type: functional
[22] = tested on: A549; assay: Downregulation of uPA protein expression in human A549 cell extract at 1.70 uM after 48 hrs by ELISA (reference value: 11.0000 +/-1.60 ng/ml); assay type: functional
[23] = tested on: A549; assay: Downregulation of uPA protein expression in human A549 cell extract at 0.85 uM after 48 hrs by ELISA; assay type: functional
[24] = tested on: A549; assay: Downregulation of uPA protein expression in human A549 cell extract at 1.5 uM after 48 hrs by ELISA (reference value: 11.00 +/-1.60 ng/ml); assay type: functional
[25] = tested on: MCF7; assay: Downregulation of uPA protein expression in human MCF7 cell extract at 0.0625 ug/well after 48 hrs by ELISA (reference value: 1 1.4000 +/- 1.40 ng/ml)
[26] = tested on: MCF7; assay: Downregulation of uPA protein expression in human MCF7 cell extract at 0.0625 uM after 48 hrs by ELISA; assay type: functional
[27] = tested on: MCF7; assay: Downregulation of uPA protein expression in human MCF7 cell extract at 0.25 uM after 48 hrs by ELISA; assay type: functional
[28] = tested on: A549; assay: Downregulation of uPA protein expression in human A549 cell extract at 3 uM after 48 hrs by ELISA (reference value: 11.00 +/-1.60 ng/ml); assay type: functional
[29] = tested on: A549; assay: Downregulation of uPA protein expression in human A549 cell extract at 12 uM after 48 hrs by ELISA (reference value: 11.00 +/-1.60 ng/ml); assay type: functional
[30] = tested on: MCF7; assay: Downregulation of uPA protein expression in human MCF7 cell extract at 0.125 uM after 48 hrs by ELISA; assay type: functional
[31] = tested on: MCF7; assay: Downregulation of uPA protein expression in human MCF7 cell extract at 0.50 uM after 48 hrs by ELISA; assay type: functional
[32] = tested on: MCF7; assay: Downregulation of uPA protein expression in human MCF7 cell extract at 0.125 uM after 48 hrs by ELISA (reference value: 1 1.4000 +/- 1.40 ng/ml); assay type: functional
[33] = tested on: MCF7; assay: Downregulation of uPA protein expression in human MCF7 cell extract at 0.50 uM after 48 hrs by ELISA (reference value: 1 1.4000 +/- 1.40 ng/ml); assay type: functional
[34] = tested on: MCF7; assay: Downregulation of uPA protein expression in human MCF7 cell extract at 0.25 uM after 48 hrs by ELISA (reference value: 1 1.4000 +/- 1.40 ng/ml); assay type: functional
[35] = tested on: A549; assay: Downregulation of uPA protein expression in human A549 cell extract at 6 uM after 48 hrs by ELISA (reference value: 11.00 +/-1.60 ng/ml); assay type: functional

Sequence of Urokinase plasminogen activator surface receptor (Q03405 whole entry): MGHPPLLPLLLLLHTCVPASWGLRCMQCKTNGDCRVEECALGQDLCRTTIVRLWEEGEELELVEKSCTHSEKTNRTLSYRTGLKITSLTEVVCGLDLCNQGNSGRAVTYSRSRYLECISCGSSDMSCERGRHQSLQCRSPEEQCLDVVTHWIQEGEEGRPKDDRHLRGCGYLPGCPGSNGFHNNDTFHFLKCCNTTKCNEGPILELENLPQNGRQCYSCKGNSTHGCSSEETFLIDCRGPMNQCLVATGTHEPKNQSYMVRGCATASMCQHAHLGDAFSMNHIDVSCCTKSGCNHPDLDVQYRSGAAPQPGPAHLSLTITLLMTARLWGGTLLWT

`O=C1NC2=Nc3ccccc3NC2=Nc2ccccc21` gave an Activity [1] of 86.3%, an IC50 [2] of 1.39 µg/well and a Ki [3] of 1.33 nM. The Activity [4] was 22.6%, the Activity [5] was 54.6% and the IC50 [6] was 13200 nM. It also gave an Activity [7] of 100%.

Compound `C=CCn1c(CN2C3=Nc4ccccc4C(=O)NC3=Nc3ccccc32)nc2ccccc21` has an Activity [8] of 6.2 ng/mL, an Activity [9] of 33% and an Activity [1] of 77.9%. For the same compound, the IC50 [2] was 0.667 µg/well, the Activity [10] was 65% and the Activity [11] was 61%. The Activity [12] was 3.8 ng/mL, the Activity [13] was 39% and the Activity [14] was 23%. The Activity [15] was 7.7 ng/mL, the Activity [16] was 4.4 ng/mL and the Activity [17] was 33%. It also gave an Activity [18] of 8.8 ng/mL, an Activity [19] of 7.4 ng/mL and a Ki [3] of 0.000288 nM. For the same compound, the Activity [4] was 11.6%, the Activity [20] was 7 ng/mL and the Activity [5] was 45.8%. The IC50 [6] was 3400 nM, the Activity [7] was 100% and the Activity [21] was 52%. The Activity [22] was 5.3 ng/mL and the Activity [23] was 44%.

Compound `N#Cc1cc(-c2ccccc2)n(Cc2nc3ccccc3[nH]2)c1N` has an Activity [1] of 82%, an Activity [24] of 11.6 ng/mL and an IC50 [2] of 0.515 µg/well. The Activity [25] was 7.4 ng/mL, the Activity [26] was 35% and the Activity [27] was 65%. For the same compound, the Activity [28] was 9.7 ng/mL, the Activity [29] was 9.2 ng/mL and the Activity [30] was 50%. For the same compound, the Activity [31] was 75%, the Activity [32] was 5.7 ng/mL and the Ki [3] was 0.000589 nM. For the same compound, the Activity [33] was 2.8 ng/mL, the Activity [34] was 4 ng/mL and the Activity [4] was 18%. The Activity [5] was 48.3%, the IC50 [6] was 12000 nM and the Activity [7] was 100%. The Activity [35] was 9.8 ng/mL.
